Test results published in article PMC9977398, “Next-generation membrane-active glycopeptide antibiotics that also inhibit bacterial cell division” (Chemical Science, 2023).
In brackets after ≈: the same amount, converted by molar mass. Read-outs that look alike come from different tables or passages of the source.

Experiments:
[1] = tested on: stationary phase cells of MRSA; test: Antibacterial activity against stationary phase bacteria; format: cell-based, S. aureus; details: for time to complete eradication: stationary phase MRSA
Description: The stationary phase cells and persister cells are metabolically repressed and phenotypically different from the log-phase cells.[27] For activity, the commonly used drugs, vancomycin, and linezolid require actively ongoing cellular processes. They are therefore ineffective against non-dividing bacteria. […] The integrity of the bacterial membrane is imperative to survival irrespective of metabolic state. […] It completely eradicated cells in 24 h at 10 μM and within 6 h at 20 μM. […]
Antibacterial activity against stationary phase bacteria
MRSA ATCC 33591 was grown to mid-log phase at 37 °C. The bacterial suspension was diluted 1000-fold in nutrient media and allowed to reach stationary phase in 16 h. The bacterial suspension was diluted and spot-plated to determine the bacterial count. The 16 h growth culture was diluted to ~10^6 CFU/mL in PBS. 150 μL of this bacterial suspension was then incubated with 50 μL of test compounds in a 96 well-plate. The compound and bacteria were then incubated at 37 °C for 2h. The suspension was serially diluted 10 fold and spot-plated on […]. The viable bacteria were then counted after 48 h incubation at 37 °C. The results represented are the average of two independent experiments carried in duplicates. […]

[2] = tested on: planktonic cells; test: Viability of planktonic cells post-treatment in HEPES-glucose; format: cell-based
Description: To confirm that membrane perturbation contributed to cell death, the bacterial viability was evaluated under conditions similar to the mechanistic studies. […] The number of viable cells was lower upon treatment with VanQAmC10 (8) than when treated with VanQbiph (4) at the same concentration. […] The stronger membrane–perturbation properties of VanQAmC10 (8) therefore contribute to higher activity against both exponentially growing and stationary phase bacteria.

[3] = tested on: B. subtilis 168; test: Determination of MIC against B. subtilis; format: cell-based; details: read-out: MIC against B. subtilis
Description: (§1) Determination of MIC against B. subtilis
(§2) Overnight cultures of B. subtilis 168 were grown in 50 mL flasks in 5 mL BMM media. The bacteria in the mid-log phase were then incubated with compounds for 18 h at 37 ̊C in BMM media. The MIC was determined as the lowest concentration at which no visible bacterial OD […]
(§3) Overnight bacterial cultures were inoculated in BMM and allowed to grow to an OD 500 of 0.35. 200 µL of the bacterial culture were incubated with compounds at 37 ̊C for 15 minutes. […]
(§4) BAC Light assay or pore formation assay
(§5) 0.35. 500 µL of the bacteria was then incubated with the compounds at their respective PECSs for 10 mins in the same media at 37 ̊C. The compound was then centrifuged at 13200 rpm and […]

[4] = tested on: B. subtilis 168; test: Acute growth retardation / physiologically effective concentration; format: cell-based; details: exponentially growing B. subtilis
Description: The mechanisms of action in Gram-positive bacteria were further examined in the model bacterium B. subtilis. The study of the mechanism of action of a drug requires live cells under antibiotic stress. A 30–50% growth inhibition upon treatment, triggers a stress response in the bacterial cell while allowing cell proliferation to progress at a level sufficient to study the effect of the compound. The lowest concentration at which this effect was observed, was termed the physiologically effective concentration (PEC). […] The acute effect of different antibiotic concentrations on exponentially growing bacterial cultures were tested to identify the PEC (Fig. 3B–D). […] The presence of cationic lipophilic moieties possibly result in higher accumulation in the membrane region leading to growth inhibition at lower concentrations. […]
(§6) Determination of Physiologically Effective Concentration7
Overnight cultures of B. subtilis 168 were grown in 50 mL flasks with 10 mL of media. Upon growing to mid-log phase (an OD500 between 0.5 and 1), bacteria was inoculated in 100mL BMM in a 500 ml flask. When the cultures reach an OD500 of 0.35, the bacteria is aliquoted into separate conicals (50 mL) with 5 ml and compounds are added. The O.D. of the solutions are recorded every 30 minutes. The concentration which retards the growth of bacteria was selected as the PEC. The experiments were performed two times independently and the images are representative of results from two independent experiments. The experiment was done together with the compound published in (J. Med. Chem. 64, 2021, 10185) and therefore the graph for vancomycin is the same. […]
as §3, §4, §5

[5] = tested on: B. subtilis; test: Cell wall biosynthesis inhibition assay (bubble assay); format: cell-based; details: treatment at PEC
Description: To further study the mechanisms contributing to the growth retardation, microscopic studies were carried out upon treatment of B. subtilis with compounds. Upon inhibition of cell wall biosynthesis, holes are formed in the peptidoglycan layer where new cell wall material is no longer incorporated. The cytoplasmic membrane extrudes out of these perforations, appearing as bubbles on the cell surface when treated with a 1 : 3 mixture of acetic acid and methanol.[30] […]
and the untreated control were carefully removed from the well, washed with 0.9 % saline, and placed on glass slides. The biofilms were then stained with 10 μL of SYTO9 (60μM) and imaged using a Zeiss 510 Meta confocal laser-scanning microscope. The orthogonal projections of the images were processed with LSM 5 Image examiner. The experiment was performed three times independently and the image provided is representative of these.
as §1, §2, §6
Overnight cultures of B. subtilis 168 were grown in 50 mL flasks with 10 mL of media. Upon growing to mid-log phase (an OD500 between 0.5 and 1), bacteria was inoculated in 100mL BMM in a 500 ml flask. When the cultures reach an OD500 of 0.35, the bacteria is aliquoted into separate conicals (50 mL) with 5 ml and compounds are added. The O.D. of the solutions are recorded every 30 minutes. The concentration which retards the growth of bacteria was selected as the PEC. The experiments were performed two times independently and the images are representative of results from two independent experiments. The experiment was done together with the compound published in (J. Med. Chem. 64, 2021, 10185) and therefore the graph for vancomycin is the same.
Cell wall biosynthesis inhibition assay or Bubble assay […]

Row | SMILES | time to complete eradication ([1]; 20 μM) | reduction in viable cells ([2]; 5 μM) [log CFU mL^−1] | reduction in viable cells ([2]; 10 μM) [log CFU mL^−1] | MIC ([3]; Bacillus subtilis, 168, BMM media, 18 h) [µM] | concentration showing growth retardation (inhibitory effect from) [4] [µM] | cell wall biosynthesis inhibition (bubbles after acetic acid/methanol fixation) [5] | effect on viable stationary phase cells ([1]; 40 μM, 24 h) | effect on viable cells ([2]; 40 μM) | MIC ([3]; Bacillus subtilis, 168, 18 h) [µM] | time to complete eradication ([1]; 10 μM) [h]
1 | CNC(CC(C)C)C(=O)NC1C(=O)NC(CC(N)=O)C(=O)NC2C(=O)NC3C(=O)NC(C(=O)NC(C(=O)NCCC[N+](C)(C)Cc4ccc(-c5ccccc5)cc4)c4cc(O)cc(O)c4-c4cc3ccc4O)C(O)c3ccc(c(Cl)c3)Oc3cc2cc(c3OC2OC(CO)C(O)C(O)C2OC2CC(C)(N)C(O)C(C)O2)Oc2ccc(cc2Cl)C1O (stereo not drawn) [VanQbiph (4)] | 24 h | 0.8 | 2.2 | 0.15 | 0.2 | showed bubbles on the surface |  |  |  | 
2 | CN[C@H](CC(C)C)C(=O)N[C@H]1C(=O)N[C@@H](CC(N)=O)C(=O)N[C@H]2C(=O)N[C@H]3C(=O)N[C@H](C(=O)N[C@H](C(=O)O)c4cc(O)cc(O)c4-c4cc3ccc4O)[C@H](O)c3ccc(c(Cl)c3)Oc3cc2cc(c3O[C@@H]2O[C@H](CO)[C@@H](O)[C@H](O)[C@H]2O[C@H]2C[C@](C)(N)[C@H](O)[C@H](C)O2)Oc2ccc(cc2Cl)[C@H]1O [Vancomycin, reference compound] |  |  |  |  | 0.4 | showed bubbles on the surface | did not reduce the number of viable stationary phase cells | did not reduce the viability of bacteria | 0.2 (≈ 0.29 µg/mL) | 
3 | CCCCCCCCCCNC(=O)C[N+](C)(C)CCCNC(=O)C1NC(=O)C2NC(=O)C(NC(=O)C3NC(=O)C(CC(N)=O)NC(=O)C(NC(=O)C(CC(C)C)NC)C(O)c4ccc(c(Cl)c4)Oc4cc3cc(c4OC3OC(CO)C(O)C(O)C3OC3CC(C)(N)C(O)C(C)O3)Oc3ccc(cc3Cl)C2O)c2ccc(O)c(c2)-c2c(O)cc(O)cc21 (stereo not drawn) [VanQAmC10 (8)] | up to 6 h | 2 | 4 |  | 0.125 | showed bubbles on the surface |  |  | 0.25 | 24
